Test results as given in patent publication US4122184A, “Benzimidazole insecticides” (priority 1977, dated 1978).

Assays:
[1] = tested on: Boll Weevil; test: Field trial (first summer), topical; assay type: in vivo, Anthonomus grandis; conditions: .15625 μg/μl
Method: (§1) In a variation of the above test, 1 microliter of a test solution containing a predetermined number of micrograms of benzimidazole was applied directly to larvae or adult insects.
(§2) During the previous summer similar field trials were conducted employing the same tests as heretofore but with some additional species of insects not included in the later tests. The results listed below are for tests in which an insect mortality was established by a given application route and at a given concentration in a particular test. The same 0 - 9 scoring system is used as is the designation of compounds by alphabetical symbols.

[2] = tested on: Striped Cucumber Beetle Adults; test: Field trial, stomach poison test; assay type: in vivo; parameters: key: mortality rating on a 0 to 9 scale
Method: (§3) Leaves from the infested plant are treated with different concentrations of the test compounds, either by spraying with a DeVilbiss Special Atomizer (5004) at 10 psi or by dipping the leaves in solutions containing the compound. The leaves are then allowed to air dry.
(§4) After the leaves have dryed, they are placed in plastic petri dishes (100 × 25 mm), then the insects are counted out into each dish, five or ten insects per dish depending on the number of insects available. There are one or two replicates and usually two or three rates with each compound. Mortality results are taken at 24, 48 and 72 hours. The rating scale is 0 to 9.
(§5) Using the above methods, field trials were carried out against species of 5 orders of insects. The results, which are summarized in the following tables, give the average mortality for the particular insect with a given benzimidazole for each concentration employed. […] These tables contain all results obtained during the summer trials.

[3] = tested on: Confused Flour Beetle; test: Field trial (first summer), topical; assay type: in vivo; conditions: .078125 μg/μl
Method: as §1, §2

[4] = tested on: Picnic Beetle; test: Field trial (first summer), topical; assay type: in vivo; conditions: .078125 μg/μl
Method: as §1, §2

[5] = tested on: Yellow Mealworm Larvae; test: Field trial, topical application; assay type: in vivo; parameters: key: 0 = 0-10% mortality, 9 = 91-100% mortality (0-9 scale)
Method: (§6) The results are read at 24, 48, and 72 hours when applicable. The rating scale is 0 to 9 where 0 = 0-10 percent and 9 = 91-100 percent mortality.
as §1, §5

[6] = tested on: Red-Legged Grasshopper Adults; test: Field trial, contact poison test; assay type: in vivo
Source text: (§7) Infested plants are placed in 6 oz. prescription bottles filled with water to keep them from wilting. Cellucotton is wrapped around the plant stem and squeezed into the bottle neck to prevent the insects from drowning.
(§8) A DeVilbiss Special Atomizer (5004) is used at 10 psi to spray the test plant with different concentrations of compounds. The atomizer is held at arm's length to prevent blowing the insects off the host plant. After treating, the bottles are placed on a table covered with brown wrapping paper to catch the dead insects as they drop from the plant. The plants are spaced so the leaves or plants are not touching one another.
as §6, §5

[7] = tested on: Bean Leaf Beetle; test: Field trial, contact poison test; assay type: in vivo
Source text: as §7, §8, §6, §5

[8] = tested on: Potato Flea Beetle Adults; test: Field trial, contact poison test; assay type: in vivo
Source text: as §7, §8, §6, §5

[9] = tested on: Red-Legged Grasshopper Adults; test: Field trial, stomach poison test; assay type: in vivo
Method: as §3, §4, §5

[10] = tested on: Bean Leaf Beetle; test: Field trial, stomach poison test; assay type: in vivo
Method: as §3, §4, §5

[11] = tested on: Potato Flea Beetle Adults; test: Field trial, stomach poison test; assay type: in vivo
Method: as §3, §4, §5

[12] = tested on: Citrus Rust Mite (CRM); test: Miticide test, acute mortality, foliar spray; assay type: in vivo; conditions: after 72 hours
Method: Citrus cuttings were obtained and prepared for testing within 24 hours prior to inoculation with citrus rust mites. To prepare the cuttings, terminals of branches 12 to 14 inches in length were cut from temple orange trees, immediately placed in tap water and taken into the laboratory. Uniform hardwood cuttings, 3 to 4 inches in length, were cut from the branches, all but one hardened leaf was removed from the cuttings, and the remaining leaf was wiped clean with a cotton pad soaked in 10% ethanol solution. Each cutting was immediately placed in tap water in a test tube with the closed leaf extending out of the test tube. Then, a ring of melted lanolin was applied around the petiole to prevent migration of mites from the leaf. One cutting was used for each replicate.
When the leaves were dry immediately after cleaning, citrus rust mites were transferred to the test leaves by cutting a heavily infested colony leaf (from a source colony maintained on citrus seedlings) into 20 to 22 sections (approximately 0.25 by 0.5 inches in size) and using forceps to place 1 section on each leaf cutting. As the section became desiccated the mites moved to the whole leaf and in 20 hours the sections were removed from the leaves for treatment application.
Treatments were applied within 24 hours after inoculation by removing the cuttings from the test tube and submerging the leaves in the treatment solution for 5 seconds by hand and immediately returning the cutting to the test tube. […]
(§9) The treated cuttings were stored in the greenhouse for 24 hours before evaluation under a binocular disecting microscope in the laboratory. In evaluating the results of the miticide test, each treated cutting was removed from the test tube, observed for live and dead mites at 14 × magnification, and returned immediately to the test tube. A scale of 0-9 was used as before.

[13] = tested on: Southern Corn Rootworm Adults; test: Field trial, stomach poison test; assay type: in vivo; parameters: key: mortality rating on a 0 to 9 scale
Method: as §3, §4, §5

[14] = tested on: Unidentified Green Leafhopper; test: Field trial, stomach poison test; assay type: in vivo; parameters: key: mortality rating on a 0 to 9 scale
Method: as §3, §4, §5

[15] = tested on: Tarnished Plant Bug Adults; test: Field trial, stomach poison test; assay type: in vivo; parameters: key: mortality rating on a 0 to 9 scale
Method: as §3, §4, §5

[16] = tested on: Squash Bug Adults; test: Field trial, contact poison test; assay type: in vivo; parameters: key: 0-9 rating: 0 = 0-10% mortality, 9 = 91-100% mortality
Source text: as §7, §8, §6, §5

[17] = tested on: Southern Corn Rootworm Adults; test: Field trial, contact poison test; assay type: in vivo
Source text: as §7, §8, §6, §5

[18] = tested on: Meadow Spittlebug; test: Field trial, stomach poison test; assay type: in vivo
Method: as §3, §4, §5

[19] = tested on: Aphids - Apple; test: Field trial, stomach poison test; assay type: in vivo
Method: as §3, §4, §5

[20] = tested on: Aphids - Sour Gum; test: Field trial, stomach poison test; assay type: in vivo
Method: as §3, §4, §5

[21] = tested on: Aphids - Tulip Tree; test: Field trial, stomach poison test; assay type: in vivo
Method: as §3, §4, §5

[22] = tested on: Two-Spotted Spider Mite (2-SSM); test: Miticide test, acute mortality, foliar spray; assay type: in vivo, Tetranychus urticae
Method: Each 5 mg. sample of technical compound preweighed at Greenfield was dissolved in 2.5 ml. of acetone and diluted with 247.5 ml. of water containing a combination of […]
as §9
The test employing two-spotted spider mites was conducted in similar fashion except that the mites were maintained on squash seedlings or squash cuttings.

`O=[N+]([O-])c1cc(C(F)(F)F)cc2nc(C(F)F)[nH]c12` [Q, 2-difluoromethyl-4-nitro-6-trifluoromethylbenzimidazole] gave an insect mortality rating [1] of 5, an average mortality rating ([2]; 10 ppm) of 2 and an average mortality rating ([2]; 25 ppm) of 3. The average mortality rating ([2]; 50 ppm) was 2, the average mortality rating ([2]; 100 ppm) was 2 and the insect mortality rating [3] was 7. The insect mortality rating [4] was 9 (91-100 percent mortality), the average mortality rating ([5]; 0.03 μg/μl) was 1 and the average mortality rating ([5]; 0.07 μg/μl) was 4. The average mortality rating ([5]; 0.15 μg/μl) was 7, the average mortality rating ([6]; 10 ppm) was 0 (0-10 percent) and the average mortality rating ([6]; 25 ppm) was 4. The average mortality rating ([6]; 50 ppm) was 5, the average mortality rating ([7]; 25 ppm) was 0 (0-10 percent) and the average mortality rating ([7]; 50 ppm) was 0 (0-10 percent). For the same molecule, the average mortality rating ([7]; 100 ppm) was 0 (0-10 percent), the average mortality rating ([8]; 10 ppm) was 3 and the average mortality rating ([8]; 25 ppm) was 6. For the same molecule, the average mortality rating ([8]; 50 ppm) was 8, the average mortality rating ([9]; 10 ppm) was 1 and the average mortality rating ([9]; 25 ppm) was 1. The average mortality rating ([9]; 50 ppm) was 5, the average mortality rating ([10]; 10 ppm) was 0 (0-10 percent) and the average mortality rating ([10]; 25 ppm) was 0 (0-10 percent). For the same molecule, the average mortality rating ([10]; 50 ppm) was 0 (0-10 percent), the average mortality rating ([11]; 5 ppm) was 0 (0-10 percent) and the average mortality rating ([11]; 10 ppm) was 1. It also gave an average mortality rating ([11]; 25 ppm) of 1 and an average mortality rating ([11]; 50 ppm) of 5.

For `CCOC(=O)n1c(C(F)(F)F)nc2c([N+](=O)[O-])cc(C(F)(F)F)cc21` [U, ethyl 4-nitro-2,6-bis(trifluoromethyl)benzimidazolecarboxylate], the acute mortality rating ([12]; 6.25 ppm) was 1, the acute mortality rating ([12]; 12.5 ppm) was 1 and the acute mortality rating ([12]; 25 ppm) was 9 (91-100 percent mortality). For the same molecule, the acute mortality rating ([12]; 50 ppm) was 9 (91-100 percent mortality), the acute mortality rating ([12]; 100 ppm) was 8 and the average mortality rating ([13]; 25 ppm) was 5. It also gave an average mortality rating ([13]; 50 ppm) of 3, an average mortality rating ([13]; 100 ppm) of 3 and an average mortality rating ([2]; 10 ppm) of 2. For the same molecule, the average mortality rating ([2]; 25 ppm) was 1, the average mortality rating ([2]; 50 ppm) was 4 and the average mortality rating ([2]; 100 ppm) was 9 (91-100 percent mortality). The average mortality rating ([14]; 10 ppm) was 3, the average mortality rating ([14]; 25 ppm) was 7 and the average mortality rating ([14]; 50 ppm) was 9 (91-100 percent mortality). The average mortality rating ([15]; 10 ppm) was 0 (0-10 percent), the average mortality rating ([15]; 25 ppm) was 1 and the average mortality rating ([15]; 50 ppm) was 6. The average mortality rating ([16]; 125 ppm) was 5, the average mortality rating ([16]; 250 ppm) was 5 and the average mortality rating ([16]; 500 ppm) was 7. For the same molecule, the average mortality rating ([16]; 750 ppm) was 7, the average mortality rating ([5]; 0.03 μg/μl) was 4 and the average mortality rating ([5]; 0.07 μg/μl) was 4. For the same molecule, the average mortality rating ([5]; 0.15 μg/μl) was 6, the average mortality rating ([17]; 25 ppm) was 4 and the average mortality rating ([17]; 50 ppm) was 9 (91-100 percent mortality). The average mortality rating ([17]; 100 ppm) was 9 (91-100 percent mortality), the average mortality rating ([6]; 25 ppm) was 9 (91-100 percent mortality) and the average mortality rating ([6]; 50 ppm) was 9 (91-100 percent mortality). It also gave an average mortality rating ([18]; 10 ppm) of 5, an average mortality rating ([18]; 25 ppm) of 5 and an average mortality rating ([18]; 50 ppm) of 3. The average mortality rating ([18]; 100 ppm) was 0 (0-10 percent), the average mortality rating ([19]; 25 ppm) was 2 and the average mortality rating ([19]; 50 ppm) was 4. For the same molecule, the average mortality rating ([19]; 100 ppm) was 6, the average mortality rating ([20]; 25 ppm) was 9 (91-100 percent mortality) and the average mortality rating ([20]; 50 ppm) was 7. The average mortality rating ([20]; 100 ppm) was 9 (91-100 percent mortality), the average mortality rating ([21]; 25 ppm) was 6 and the average mortality rating ([21]; 50 ppm) was 8. The average mortality rating ([21]; 100 ppm) was 9 (91-100 percent mortality), the acute mortality rating ([22]; 6.25 ppm) was 1 and the acute mortality rating ([22]; 12.5 ppm) was 3. For the same molecule, the acute mortality rating ([22]; 25 ppm) was 8, the acute mortality rating ([22]; 50 ppm) was 8 and the acute mortality rating ([22]; 100 ppm) was 9 (91-100 percent mortality).
